From patent US5866548A, “Caged membrane-permeant inositol phosphates” (priority 1996, dated 1999)
Entries after “also recorded” stand apart in the source; their conditions may differ. Values belong to the compound of their own block, whether it stands above or below them.

What was measured:
[1] = test system: 1321N1 astrocytoma cells; assay: [Ca2+]i response before and after UV uncaging, fluo-3; format: cell-based; details: for [Ca2+]i response after uncaging of IP3-CPM: Ca2+ free medium
Procedure: (b) Same experiment as (a) except done in Ca^2+ free medium (DPBS, O Ca^2+, 0.5 mM EGTA). UV exposure of the cells treated with IP3 -CPM still gave the same response, showing that the [Ca^2+ ]i increase resulted from the release of Ca^2+ from internal stores. […] The cells were loaded with fluo-3/AM. During the experiment the cells were bathed in HBS buffered with 20 mM Hepes at pH 7.4 and supplemented with 2 g/L glucose.
The [Ca^2+ ]i was monitored using the calcium indicator fluo-3 rather than fura-2 to keep the excitation wavelength of the indicator (490 nm) far from the uncaging wavelength (360 nm) of DMNB group. […] Compared to the photolyzing set-up (direct illumination by a hand mercury lamp) used for the IP3 -binding assay, the optical throughput from the source lamp to the specimen is much higher in a microscope, so 10 seconds (as opposed to 2 hours in IP3 binding assay) of photolysis was sufficient to produce enough IP3 to elicit [Ca^2+ ]i increase. The same amount of UV alone had no effect at all on [Ca^2+ ]i in cells not treated with IP3 -CPM. After recovering from uncaging of IP3 -CPM, the cells responded to subsequent carbachol and thapsigargin stimulation normally.
This confirmed that the [Ca^2+ ]i increase due to uncaging of IP3 -CPM resulted from internal Ca^2+ release, which was consistent with the normal mechanism of IP3 action.

[2] = test system: 1321N1 astrocytoma cells; assay: as above; format: cell-based; details: with extracellular Ca2+, carbachol 200 μM, thapsigargin 100 nM, ionomycin 5 μM
[3] = test system: intestinal cell line T84; assay: cells; format: cell-based; details: 0.2 h; T84, ISC 12 min after addition; read-out: EC50 (chloride secretion)
Excerpt: A convenient test system is the intestinal cell line T84, in which chloride secretion can be continuously monitored by mounting confluent monolayers of cells in Ussing chambers (42).

[4] = molecular target: T1, IP3 receptor (IP3 R) (Bos taurus, UniProt Q9TU34); assay: [3H]IP3 binding assay, bovine cerebellum microsomal fractions
T1 construct: from tissue; host or cells: bovine cerebellum microsomal fractions
T1 sequence (Q9TU34 whole entry): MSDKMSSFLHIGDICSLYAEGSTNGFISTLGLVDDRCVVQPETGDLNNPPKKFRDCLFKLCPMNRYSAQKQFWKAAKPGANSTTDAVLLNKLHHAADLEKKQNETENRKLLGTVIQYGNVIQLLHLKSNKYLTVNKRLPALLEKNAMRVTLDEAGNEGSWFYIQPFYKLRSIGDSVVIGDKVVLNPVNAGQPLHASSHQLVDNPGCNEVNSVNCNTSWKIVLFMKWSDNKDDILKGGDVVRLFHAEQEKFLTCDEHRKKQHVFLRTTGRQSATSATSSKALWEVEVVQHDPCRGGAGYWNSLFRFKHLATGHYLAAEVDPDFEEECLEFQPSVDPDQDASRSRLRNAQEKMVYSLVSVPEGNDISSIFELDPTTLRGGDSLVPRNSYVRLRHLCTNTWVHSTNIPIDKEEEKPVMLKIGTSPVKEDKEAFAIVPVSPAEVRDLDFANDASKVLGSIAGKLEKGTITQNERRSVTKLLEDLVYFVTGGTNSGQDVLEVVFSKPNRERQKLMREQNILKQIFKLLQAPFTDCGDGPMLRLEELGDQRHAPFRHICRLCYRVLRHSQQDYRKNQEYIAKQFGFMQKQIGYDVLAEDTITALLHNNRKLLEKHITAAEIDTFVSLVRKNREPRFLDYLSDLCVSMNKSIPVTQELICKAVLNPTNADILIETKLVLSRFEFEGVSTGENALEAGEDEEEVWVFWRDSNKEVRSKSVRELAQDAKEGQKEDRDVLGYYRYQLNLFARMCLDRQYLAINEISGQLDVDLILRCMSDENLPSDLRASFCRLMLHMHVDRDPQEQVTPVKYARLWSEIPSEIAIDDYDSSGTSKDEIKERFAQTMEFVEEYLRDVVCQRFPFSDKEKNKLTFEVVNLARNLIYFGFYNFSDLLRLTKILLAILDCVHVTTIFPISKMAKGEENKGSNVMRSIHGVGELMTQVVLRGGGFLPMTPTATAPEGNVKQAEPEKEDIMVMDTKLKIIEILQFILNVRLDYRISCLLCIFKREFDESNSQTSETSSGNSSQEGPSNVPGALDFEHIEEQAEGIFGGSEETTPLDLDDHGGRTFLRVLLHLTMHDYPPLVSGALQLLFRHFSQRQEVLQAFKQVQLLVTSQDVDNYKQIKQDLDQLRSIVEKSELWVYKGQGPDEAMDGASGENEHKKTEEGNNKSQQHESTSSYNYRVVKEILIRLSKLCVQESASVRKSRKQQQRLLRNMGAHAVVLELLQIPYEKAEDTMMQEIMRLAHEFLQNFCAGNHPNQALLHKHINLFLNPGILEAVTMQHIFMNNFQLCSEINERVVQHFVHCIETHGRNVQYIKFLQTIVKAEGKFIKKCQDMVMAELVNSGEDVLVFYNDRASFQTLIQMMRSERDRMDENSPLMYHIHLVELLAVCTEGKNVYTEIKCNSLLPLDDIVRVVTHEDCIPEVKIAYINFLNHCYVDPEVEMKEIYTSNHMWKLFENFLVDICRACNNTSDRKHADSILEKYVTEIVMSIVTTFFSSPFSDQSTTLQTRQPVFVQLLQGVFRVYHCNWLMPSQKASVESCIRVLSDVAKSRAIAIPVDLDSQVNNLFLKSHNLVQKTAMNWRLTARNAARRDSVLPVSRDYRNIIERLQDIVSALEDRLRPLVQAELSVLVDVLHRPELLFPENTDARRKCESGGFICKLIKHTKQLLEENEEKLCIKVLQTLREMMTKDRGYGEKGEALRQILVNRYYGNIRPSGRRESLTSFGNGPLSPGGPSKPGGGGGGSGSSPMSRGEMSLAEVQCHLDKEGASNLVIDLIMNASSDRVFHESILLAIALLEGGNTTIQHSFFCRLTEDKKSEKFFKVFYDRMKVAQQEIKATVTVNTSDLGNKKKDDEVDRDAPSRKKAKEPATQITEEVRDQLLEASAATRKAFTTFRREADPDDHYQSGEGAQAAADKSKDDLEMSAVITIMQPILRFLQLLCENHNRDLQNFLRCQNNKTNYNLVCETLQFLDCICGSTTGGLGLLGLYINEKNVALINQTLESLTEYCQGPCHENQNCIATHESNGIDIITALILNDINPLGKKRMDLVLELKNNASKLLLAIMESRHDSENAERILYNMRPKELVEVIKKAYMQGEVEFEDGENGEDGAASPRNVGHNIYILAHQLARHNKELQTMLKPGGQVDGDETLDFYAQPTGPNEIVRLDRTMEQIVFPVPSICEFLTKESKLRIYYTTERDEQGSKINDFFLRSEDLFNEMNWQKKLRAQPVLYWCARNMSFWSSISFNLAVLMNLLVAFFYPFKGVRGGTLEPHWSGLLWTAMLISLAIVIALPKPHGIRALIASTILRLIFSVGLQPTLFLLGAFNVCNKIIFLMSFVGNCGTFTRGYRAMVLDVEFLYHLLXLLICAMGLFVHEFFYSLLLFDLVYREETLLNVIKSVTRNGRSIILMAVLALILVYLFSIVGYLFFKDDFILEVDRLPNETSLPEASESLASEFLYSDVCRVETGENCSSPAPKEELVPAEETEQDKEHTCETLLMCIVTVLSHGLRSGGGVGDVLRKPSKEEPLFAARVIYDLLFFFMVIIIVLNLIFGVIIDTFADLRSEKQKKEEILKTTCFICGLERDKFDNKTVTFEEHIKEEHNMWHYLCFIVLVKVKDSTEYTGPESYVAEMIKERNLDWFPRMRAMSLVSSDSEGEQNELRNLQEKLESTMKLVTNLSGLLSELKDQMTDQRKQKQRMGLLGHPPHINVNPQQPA
Procedure: Bovine cerebellum microsomal fractions, which are a rich source of IP3 binding protein, were prepared and used for [^3 H]IP3 binding assay. […] The IC50 of D-IP3 was about 8 nM.
At this point, the crude photolysis product from 100 pmol V-16 was equivalent in binding activity to 32 pmol of authentic IP3. […] The absolute stereochemistry of V-3 and its diastereomer was thus assigned.

[5] = test system: 1321N1 astrocytoma cells; assay: Cytosolic free Ca2+ imaging, fura-2; format: cell-based; details: 2 μM, with extracellular Ca2+
Procedure: Biological tests on 1321N1 astrocytoma cells were performed similarly to the tests on REF-52 cells (71). The concentration of Cytosolic free Ca^2+ (ordinate, in units of μM) in fura-2-loaded 1321N1 astrocytoma cells is shown as a function of time (abscissa, in units of seconds). At the dotted vertical line labeled 1, 20 μM inositol-1,4,5-triphosphate propionyloxymethyl ester (5a, R=Et, R'=H) was added. […] Subsequently the cells could respond to carbachol (200 μM, delivered at the dotted vertical line labeled 2), a drug that stimulates the endogenous generation of inositol-1,4,5-triphosphate. However, the response to carbachol is depressed by the prior treatment with the inositol-1,4,5-triphosphate propionyloxymethyl ester. Likewise the Ca^2+ response to thapsigargin (100 nM, delivered at the dotted vertical line labeled 3), another drug that releases stored Ca^2+, is depressed.
A test similar to the one shown in FIG. 7 was conducted except that the medium lacked extracellular Ca^2+ and a dose of 60 μM inositol-1,4,5-triphosphate propionyloxymethyl ester was added at the dotted vertical line labeled 1. […] Because no extracellular Ca^2+ was present, this response must have represented release from intracellular Ca^2+ stores. […] The much greater degree of inhibition of the carbachol response compared to the previous example (FIG. 7) is due to the higher dose of the inositol-1,4,5-triphosphate propionyloxymethyl ester and the absence of extracellular Ca^2+, which reduces refilling of Ca^2+ stores.
In a further example, the same test as set forth above was conducted with astrocytoma cells, except that 2 μM inositol-1,4,5-triphosphate butyryloxymethyl ester (5a, R=Pr, R'=H) was used instead of the propionyloxymethyl ester.

[6] = test system: P388D1 macrophage-like cells; assay: [Ca2+]i response before and after UV uncaging, fluo-3; format: cell-based; details: PAF 100 nM, ionomycin 5 μM
Procedure: The cells were loaded with fluo-3/AM. During the experiment the cells were bathed in HBS buffered with 20 mM Hepes at pH 7.4 and supplemented with 2 g/L glucose.
Another example was carried out in P388D1 macrophage-like cells.
Studies by Asmis et al. (92) have shown that, in P388D1 macrophage-like cells, PAF stimulated PGE2 production is mediated through two separate signals: IP3 induced [Ca^2+ ]i increase and another unidentified signal. IP3 -CPM might serve as a new tool for detailed study of PGE2 formation and AA release in relation to IP3 and [Ca^2+ ]i in these cells. One of the major advantages of using permeant IP3 derivatives is that experiments can be easily carried out in a population of cells, which is required for the measurement of AA release and PGE2 formation.

SMILES: C[N+](C)(C)CCOC(N)=O [Carbachol]
[Ca2+]i response after uncaging of IP3-CPM [1]: able to cause further Ca^2+ release | [Ca2+]i response after recovery from uncaging of IP3-CPM [2]: normal response | [Ca2+]i response after recovery from uncaging of IP3-CPM ([2]; listed as carbachol): normally

EC50 [3]: 100 µM
SMILES: Nc1ncnc2c1nc(Sc1ccc(Cl)cc1)n2[C@@H]1O[C@@H]2COP(=O)(O)O[C@H]2[C@H]1O [Compound 8-pCPT-cAMP, 8-para-chlorophenylthio (cCPT) cAMP, reference compound]

IC50 ([4]; cerebellar microsomes, read-out: IC50, inhibition of [3H]IP3 binding): ~0.008 µM
SMILES: O=P(O)(O)O[C@@H]1[C@H](O)[C@H](O)[C@@H](OP(=O)(O)O)[C@H](OP(=O)(O)O)[C@H]1O [D-IP3, myo-inositol 1,4,5-triphosphate, reference compound]

SMILES: COc1cc(CO[C@@H]2[C@@H](OP(=O)(OCOC(C)=O)OCOC(C)=O)[C@H](OP(=O)(OCOC(C)=O)OCOC(C)=O)[C@H]3OC(OC)O[C@H]3[C@H]2OP(=O)(OCOC(C)=O)OCOC(C)=O)c([N+](=O)[O-])cc1OC (stereo partly drawn) [IP3 -CAM, D-2,3-O-methoxymethylene-6-O-(4,5-dimethoxy-2-nitrobenzyl)-myo-inositol 1,4,5-trisphosphate hexakis(acetoxymethyl)ester]
incubation time required ([1]; astrocytes, response similar to IP3-CPM): more than 15 minutes

SMILES: CCCC(=O)OCOP(=O)(OCOC(=O)CCC)O[C@@H]1[C@H](O)[C@H](O)[C@@H](OP(=O)(OCOC(=O)CCC)OCOC(=O)CCC)[C@H](OP(=O)(OCOC(=O)CCC)OCOC(=O)CCC)[C@H]1O [IP3 /BM, D-myo-inositol-1,4,5-triphosphate butyryloxymethyl ester]
Ca2+ elevation, potency compared with propionyloxymethyl ester [5]: somewhat more potent | time course compared with propionyloxymethyl ester [5]: slower to appear and decay

SMILES: C[C@H](CCC(=O)O)C[C@H](C)C[C@H](C)C(=O)/C=C(\O)[C@H](C)C[C@H](C)C/C=C/[C@@H](C)[C@@H](O)[C@@H](C)[C@@H](O)C[C@@H]1CC[C@@](C)([C@H]2CC[C@@](C)([C@@H](C)O)O2)O1 [Ionomycin, reference compound]
[Ca2+]i response after uncaging of IP3-CPM [1]: small and transient [Ca^2+ ]i increase; also recorded: additional small [Ca^2+ ]i increase | [Ca2+]i response after uncaging of IP3-CPM [6]: huge [Ca^2+ ]i increase | [Ca2+]i response after recovery from uncaging of IP3-CPM [2]: further raised [Ca^2+ ]i to a saturating level; also recorded: huge [Ca^2+ ]i increase

affinity to IP3 R / binding to cerebellar microsomes (in words) ([4]; without photolysis): negligible affinity
SMILES: O=P(O)(O)O[C@@H]1[C@@H](O)[C@H](OP(=O)(O)O)[C@@H](OP(=O)(O)O)[C@H](O)[C@@H]1O [L-IP3, reference compound]

SMILES: CCCCCCCCCCCCCCCCOC[C@H](COP(=O)([O-])OCC[N+](C)(C)C)OC(C)=O [PAF, reference compound]
[Ca2+]i response after uncaging of IP3-CPM [6]: smaller [Ca^2+ ]i increase; also recorded: attenuated response

SMILES: C/C=C(/C)C(=O)O[C@H]1C(C)=C2[C@H]([C@@H]1OC(=O)CCCCCCC)[C@@](C)(OC(C)=O)C[C@H](OC(=O)CCC)[C@@]1(O)[C@H]2OC(=O)[C@@]1(C)O [thapsigargin]
[Ca2+]i response after uncaging of IP3-CPM [1]: able to cause further Ca^2+ release | [Ca2+]i response after recovery from uncaging of IP3-CPM [2]: normally; also recorded: normal response
